The results in this text go back to US9340549B2, “Oxazolidinone compounds and derivatives thereof” (priority 2012, dated 2016).

SMILES strings stand for the structures. Like-named read-outs stand apart in the source and are kept apart here.

Test [1] concerns the target 6×HIS-tankyrase 1 (1091-1325) (Homo sapiens (Human), UniProt O95271). Briefly: biochemical. In kind it is biochemical. Particulars: […] enzyme, 400 nM NAD, 60 minutes at room temperature; read-out: TNKS1 IP IC50.
The subject of test [2] is total β-catenin in SW480 colorectal cells. Briefly: cells. It is filed as cell-based. The settings on record: Homo sapiens. An outline of the steps:
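SW480 cells in growth medium (MEM alpha, 10% heat-inactivated FBS, 10 mM HEPES) treated with a 10-point, 3-fold dilution series of TNKS inhibitor for 40–48 h at 37 °C. Lysates run on an MSD sandwich immunoassay for total β-catenin, read by electrochemiluminescence.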

Test [3] relates to Axin2 in SW480 cells. In words: cells. It is filed as cell-based. The settings on record: read-out: Axin2 384 IF EC50 IP. An outline of the steps:
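SW480 cells treated 24 h at 37° C (0.5% DMSO final), fixed/permeabilized, immunostained for Axin2. ArrayScan imaging quantified ring-spot intensity; Axin2 accumulation expressed as percent of control, EC50 from concentration-response.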

The mark [4] stands for this setting: SW480 cells, 40 to 48 hours, top concentration 10 μM, read-out: SW480-Total β-Catenin IC50 IP.
Where [5] appears, read: Homo sapiens, SW480, 24 h, SW480 cells, 24 hours.
[6] abbreviates: SW480, read-out: SW480-Total β-Catenin IC50 IP.

Sequence of 6×HIS-tankyrase 1 (1091-1325) (O95271 1091-1325): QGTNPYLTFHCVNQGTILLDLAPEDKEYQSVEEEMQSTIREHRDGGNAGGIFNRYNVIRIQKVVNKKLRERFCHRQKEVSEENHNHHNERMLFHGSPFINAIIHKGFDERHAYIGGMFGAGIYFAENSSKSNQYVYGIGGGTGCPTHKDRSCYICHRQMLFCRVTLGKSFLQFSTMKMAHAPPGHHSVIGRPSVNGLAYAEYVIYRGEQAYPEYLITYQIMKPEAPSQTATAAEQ

For orientation: IC50 means the concentration that inhibits the measured activity by half. In general, EC50 refers to the concentration that produces a half-maximal response. As to `CC1(C)OC(=O)N([C@H]2CC[C@H](n3c(=O)[nH]c4cnc(C#N)cc43)CC2)[C@H]1c1ccccc1` [Example 54, 1-((1S,4r)-4-((S)-5,5-dimethyl-2-oxo-4-phenyloxazolidin-3-yl)cyclohexyl)-2-oxo-2,3-dihydro-1H-imidazo[4,5-c]pyridine-6-carbonitrile], the IC50 in test [1] was determined as 7.42 nM; in test [2] (setting [4]), 605 nM. Moreover, the concentration for a half-maximal effect (EC50) in test [3] (setting [5]) came out at 725 nM.
On to `CC1(C)OC(=O)N([C@H]2CC[C@H](n3c(=O)[nH]c4cnccc43)CC2)[C@H]1c1ccc(F)cc1` [Example 55, (S)-4-(4-Fluorophenyl)-5,5-dimethyl-3-((1r,4S)-4-(2-oxo-2,3-dihydro-1H-imidazo[4,5-c]pyridin-1-yl)cyclohexyl)oxazolidin-2-one], for which the IC50 in test [1] is 2.95 nM; in test [2] (setting [4]), 145 nM. For the same molecule, the EC50 in test [3] (setting [5]) came to 100 nM.
In the case of `CC1(C)OC(=O)N([C@H]2CC[C@H](NC(=O)n3ccc4cccnc43)CC2)[C@H]1c1ccccc1` [Example 58, N-(trans-4-((4S)-5,5-dimethyl-2-oxo-4-phenyl-1,3-oxazolidin-3-yl)cyclohexyl)-1H-pyrrolo[2,3-b]pyridine-1-carboxamide], the values for the IC50 in test [1] and in test [2] (setting [4]) were 7.46 nM and 979 nM, respectively. Further, in test [3] (setting [5]), the half-maximal effective concentration (EC50) was 828 nM.
Consider `CC1(C)OC(=O)N([C@H]2CC[C@H](n3c(=O)[nH]c4cc(C#N)ccc43)CC2)[C@H]1c1ccc(F)cc1` [Example 61, 1-((1S,4r)-4-((S)-4-(4-fluorophenyl)-5,5-dimethyl-2-oxooxazolidin-3-yl)cyclohexyl)-2-oxo-2,3-dihydro-1H-benzo[d]imidazole-5-carbonitrile], for which the values for the IC50 in test [1] and in test [2] (setting [4]) were 3.42 nM and 148 nM, respectively. The EC50 in test [3] (setting [5]) was determined as 238 nM.
The matching figures for `CC1(C)OC(=O)N([C@H]2CC[C@H](N3Cc4cc(C#N)ccc4NC3=O)CC2)[C@H]1c1ccccc1` [Example 62, 3-((1S,4r)-4-((S)-5,5-dimethyl-2-oxo-4-phenyloxazolidin-3-yl)cyclohexyl)-2-oxo-1,2,3,4-tetrahydroquinazoline-6-carbonitrile]: 7.63 nM, 438 nM and 147 nM.
Consider `CC1(C)OC(=O)N(c2ccc3c(c2)CCN(c2cccc4cccnc24)C3=O)[C@H]1c1ccccc1` [Example 63, (S)-5,5-dimethyl-3-(1-oxo-2-(quinolin-8-yl)-1,2,3,4-tetrahydroisoquinolin-6-yl)-4-phenyloxazolidin-2-one], for which the values for the half-inhibitory concentration (IC50) in test [1] and in test [2] (setting [4]) were 7050 nM and greater than 10000 nM, respectively. In addition, the EC50 in test [3] (setting [5]) is greater than 25000 nM.
With `CC1(C)OC(=O)N(c2ccc(-c3nnc4cc(-c5cncnc5)ccn34)cc2)[C@H]1c1ccccc1` [Example 66, (S)-5,5-dimethyl-4-phenyl-3-(4-(7-(pyrimidin-5-yl)-[1,2,4]triazolo[4,3-a]pyridin-3-yl)phenyl)oxazolidin-2-one], the IC50 was determined as 1970 nM in test [1] and 9270 nM in test [2] (setting [4]). Also, the EC50 in test [3] (setting [5]) is greater than 25000 nM.
The like results for `CC1(C)OC(=O)N(c2ccc(-c3nnc4cc(C#N)ccn34)cc2)[C@H]1c1ccccc1` [Example 67, (S)-3-(4-(5,5-dimethyl-2-oxo-4-phenyloxazolidin-3-yl)phenyl)-[1,2,4]triazolo[4,3-a]pyridine-7-carbonitrile] were, in that order, 5230 nM, greater than 10000 nM and greater than 25000 nM.
On to `CC1(C)OC(=O)N(c2ccc(-c3nnc4ccc(Cl)nn34)cc2)[C@H]1c1ccccc1` [Example 68, (S)-3-(4-(6-chloro-[1,2,4]triazolo[4,3-b]pyridazin-3-yl)phenyl)-5,5-dimethyl-4-phenyloxazolidin-2-one], for which the half-maximal inhibitory concentration (IC50) is 1980 nM in test [1] and greater than 10000 nM in test [2] (setting [4]). The EC50 in test [3] (setting [5]) was greater than 25000 nM.
The matching figures for `CC1(C)OC(=O)N(c2ccc(-n3nnc4ccccc43)cc2)[C@H]1c1ccccc1` [Example 69, (S)-3-(4-(1H-benzo[d][1,2,3]triazol-1-yl)phenyl)-5,5-dimethyl-4-phenyloxazolidin-2-one]: 2100 nM, greater than 10000 nM and greater than 25000 nM.
Regarding `CC1(C)OC(=O)N(c2ccc(-c3cnc(N)nc3)cc2)[C@H]1c1ccccc1` [Example 70, (S)-3-(4-(2-aminopyrimidin-5-yl)phenyl)-5,5-dimethyl-4-phenyloxazolidin-2-one], the IC50 in test [1] was 1490 nM; in test [2] (setting [4]) it was greater than 10000 nM. Further, in test [3] (setting [5]), the EC50 was greater than 25000 nM.
Turning to `CC1(C)OC(=O)N([C@H]2CC[C@@H](c3cnc(N)c(C4=NCCCN4)c3)CC2)[C@H]1c1ccccc1` [Example 76, (S)-3-((1s,4R)-4-(6-amino-5-(1,4,5,6-tetrahydropyrimidin-2-yl)pyridin-3-yl)cyclohexyl)-5,5-dimethyl-4-phenyloxazolidin-2-one], the IC50 is 9840 nM in test [1] and greater than 10000 nM in test [2] (setting [4]). Further, the concentration for a half-maximal effect (EC50) in test [3] (setting [5]) was greater than 25000 nM.
Take `CC1(C)OC(=O)N([C@H]2CC[C@H](c3cnc(N)c(C4=NCCCN4)c3)CC2)[C@H]1c1ccccc1` [Example 77, (S)-3-((1r,4S)-4-(6-amino-5-(1,4,5,6-tetrahydropyrimidin-2-yl)pyridin-3-yl)cyclohexyl)-5,5-dimethyl-4-phenyloxazolidin-2-one]: the IC50 is 1650 nM in test [1] and greater than 10000 nM in test [2] (setting [4]). Moreover, in test [3] (setting [5]), the EC50 was greater than 25000 nM.
Regarding `CC1(C)OC(=O)N(c2ccc(-n3cc(-c4ccccc4)[nH]c3=O)cc2)[C@H]1c1ccccc1` [Example 80, (4S)-5,5-dimethyl-3-(4-(2-oxo-4-phenyl-2,3-dihydro-1H-imidazol-1-yl)phenyl)-4-phenyl-1,3-oxazolidin-2-one], the half-inhibitory concentration (IC50) in test [1] is 3080 nM; in test [2] (setting [4]) it was 1360 nM. The EC50 in test [3] (setting [5]) was greater than 12500 nM; in test [3] (SW480 cells, 24 hours), greater than 25000 nM.
`CC1(C)OC(=O)N([C@H]2CC[C@H](c3cc(-c4ncccn4)c[nH]c3=O)CC2)[C@H]1c1ccccc1` [Example 81, 3-(trans-4-((4S)-5,5-dimethyl-2-oxo-4-phenyl-1,3-oxazolidin-3-yl)cyclohexyl)-5-(2-pyrimidinyl)-2(1H)-pyridinone]: the half-inhibitory concentration (IC50) turned out to be 11.4 nM in test [1] and 767 nM in test [2] (setting [6]). Further, the concentration for a half-maximal effect (EC50) in test [3] (Homo sapiens, SW480, 24 h) worked out at 840 nM.
Take `CC1(C)OC(=O)N([C@H]2CC[C@H](c3cc(-c4ncccn4)c[nH]c3=O)CC2)[C@@H]1c1ccccc1` [Example 82, 3-(trans-4-((4R)-5,5-dimethyl-2-oxo-4-phenyl-1,3-oxazolidin-3-yl)cyclohexyl)-5-(2-pyrimidinyl)-2(1H)-pyridinone]: the IC50 in test [1] came out at 195 nM; in test [2] (setting [6]), 1340 nM. Moreover, the EC50 in test [3] (Homo sapiens, SW480, 24 h) was found to be 7130 nM.
For the molecule `CC1(C)OC(=O)N([C@H]2CC[C@H](c3nnc(-c4ccccc4)o3)CC2)C1c1ccccc1` (stereo partly shown) [Example 84, 5,5-dimethyl-4-phenyl-3-((1r,4r)-4-(5-phenyl-1,3,4-oxadiazol-2-yl)cyclohexyl)oxazolidin-2-one], the 50% inhibitory concentration (IC50) was determined as 473 nM in test [1] and 4940 nM in test [2] (setting [4]). The concentration for a half-maximal effect (EC50) in test [3] (setting [5]) was determined as 7600 nM.
For the molecule `CC1(C)OC(=O)N([C@H]2CC[C@H](c3nnc(-c4ccccc4)o3)CC2)[C@@H]1c1ccccc1` [Example 86, (R)-5,5-dimethyl-4-phenyl-3-((1r,4R)-4-(5-phenyl-1,3,4-oxadiazol-2-yl)cyclohexyl)oxazolidin-2-one], the values for the IC50 in test [1] and in test [2] (setting [4]) were 32.2 nM and greater than 10000 nM, respectively. For the same molecule, the half-maximal effective concentration (EC50) in test [3] (setting [5]) is 1660 nM.
With `CC1(C)OC(=O)N(c2ccc(-c3cc4ccncc4[nH]c3=O)cc2)[C@H]1c1ccccc1` [Example 88, (S)-5,5-dimethyl-3-(4-(2-oxo-1,2-dihydro-1,7-naphthyridin-3-yl)phenyl)-4-phenyloxazolidin-2-one], the IC50 came to 11.8 nM in test [1] and 473 nM in test [2] (setting [4]). The 50% effective concentration (EC50) in test [3] (setting [5]) came to 285 nM.
Consider `CC1(c2ccccc2)CN([C@H]2CC[C@H](n3c(=O)[nH]c4cnccc43)CC2)C(=O)O1` (stereo partly drawn) [Example 89, (R+S)-5-methyl-3-((1r,4R)-4-(2-oxo-2,3-dihydro-1H-imidazo[4,5-c]pyridin-1-yl)cyclohexyl)-5-phenyloxazolidin-2-one], for which the IC50 in test [1] stood at 17.2 nM; in test [2] (setting [4]), 3440 nM. The EC50 in test [3] (setting [5]) was 7030 nM.
Consider `CC1(c2ccccc2)CN([C@H]2CC[C@@H](n3c(=O)[nH]c4cc(C#N)ccc43)CC2)C(=O)O1` (stereo partly drawn) [Example 92, 1-((1R,4r)-4-((R+S)-5-methyl-2-oxo-5-phenyloxazolidin-3-yl)cyclohexyl)-2-oxo-2,3-dihydro-1H-benzo[d]imidazole-5-carbonitrile], for which the results for the IC50 in test [1] and in test [2] (setting [4]) were 4.9 nM and 177 nM, respectively. For the same molecule, in test [3] (setting [5]), the half-maximal effective concentration (EC50) was 183 nM.
In the case of `CC1(C)OC(=O)N([C@H]2CC[C@H](c3cnc(N)c(C#N)c3)CC2)[C@H]1c1ccccc1` [Example 95, 2-amino-5-((1S,4r)-4-((S)-5,5-dimethyl-2-oxo-4-phenyloxazolidin-3-yl)cyclohexyl)nicotinonitrile], the results for the IC50 in test [1] and in test [2] (setting [4]) were 6.98 nM and 468 nM, respectively. In test [3] (setting [5]), the concentration for a half-maximal effect (EC50) was 474 nM.
For the molecule `CC1(C)OC(=O)N([C@H]2CC[C@@H](c3c[nH]c(=O)c(-c4ncccn4)c3)CC2)[C@H]1c1ccccc1` [Example 96, (S)-5,5-Dimethyl-3-((1s,4R)-4-(6-oxo-5-(pyrimidin-2-yl)-1,6-dihydropyridin-3-yl)cyclohexyl)-4-phenyloxazolidin-2-one], the IC50 in test [1] was 511 nM; in test [2] (setting [4]), greater than 10000 nM. In test [3] (setting [5]), the EC50 is greater than 25000 nM.
